Assay results from US12162864B2, “Condensed-cyclic compound” (Takeda Pharmaceutical Company Limited, priority 2018, dated 2024).

Experiments:
Male SD rats = experiment: Rat defecation experiment; format: in vivo; settings: oral, mean±standard error
Method: Rat Defecation Experiment
Male SD rats (5-6 weeks old) were used after an acclimation period for about 1 week. A test drug (1 mg/kg or 3 mg/kg) was suspended in 0.5% methylcellulose solution and orally administered at a volume of 5 mL/kg, and the number of feces for 2 hr later was counted. Only 0.5% methylcellulose was administered to a solvent administration group.

Rat PK test = format: in vivo; settings: plasma, male SD rats, cassette dosing; for clearance / MRT: intravenous 0.1 mg/kg; for clearance: read-out: CL total (total clearance) (converted); for MRT: read-out: MRT iv (mean residence time); for Tmax: oral 1 mg/kg, read-out: Tmax (time to reach maximum plasma concentration)
Method: As the rat, 8-week-old male SD rats (Japan SLC, Inc.) were used. They were fed on a solid commercially available diet (CE-2, CLEA Japan, Inc.) and allowed to freely ingest tap water as the drinking water. An intravenous administration solution for the rats was prepared by weighing a test compound, dissolving same in dimethylacetamide (DMA) (Wako Pure Chemical Industries, Ltd.), adding the same volume of 1,3-butanediol (Wako Pure Chemical Industries, Ltd.) and mixing by stirring to give a DMA:1,3-butanediol (1:1, v/v) solution. An oral administration solution was prepared by weighing a test compound, pulverizing same in an agate mortar, and gradually adding 0.5 w/v % aqueous methylcellulose solution to give a suspension. For intravenous administration, the solution was administered into femoral vein of the rats at 0.1 mg/0.5 mL/kg (salt converted to free form). For oral administration, the suspension was administered to the rats at 1 mg/5 mL/kg (salt converted to free form). The cassette dosing method was used for the both administration routes, and the test compound was administered in the following manner. • Compound of Example 5 (intravenous: 9 compounds cassette administration, oral: 4 compounds cassette administration) • Compound of Example 6 (intravenous: 5 compounds cassette administration, oral: 3 compounds cassette administration) • Compound of Example 13 (intravenous: 10 compounds cassette administration, oral: 5 compounds cassette administration) • Compound of Example 14 (intravenous: 7 compounds cassette administration, oral: 3 compounds cassette administration) • Compound of Example 31 (intravenous: 9 compounds cassette administration, oral: 5 compounds cassette administration) • Compound of Example 60 (intravenous: 7 compounds cassette administration, oral: 2 compounds cassette administration)
In the case of intravenous administration, blood samples were collected from the tail vein at 5, 10, 15, 30 min, 1, 2, 4, 8 hr after administration, an anticoagulation treatment with heparin sodium (Shimizu Pharmaceutical Co., Ltd.) was performed, and plasma was collected after centrifugation and subjected to the measurement of drug concentration. In the case of oral administration, blood samples were collected from the tail vein at 15, 30 min, 1, 2, 4, 8 hr after administration, an anticoagulation treatment with heparin sodium was performed, and plasma was collected after centrifugation and subjected to the measurement of drug concentration.
All drug concentrations were measured by LC-MS/MS analysis. For a pharmacokinetics test, the plasma (50 μL) was placed in a tube, acetonitrile (150 μL) containing internal standard solution was added and they were mixed on a vortex mixer. Thereafter, the mixture was centrifuged (5000 rpm, 5 min, 4° C.). The supernatant (60 μL) after centrifugation was added to 10 mmol/L ammonium formate (160 μL) added earlier and mixed therewith. This sample was injected to LC/MS/MS. The HPLC system used was Shimadzu™ LC-20A (Shimadzu Corporation), the column used was Unison UK-C18 HT (3.0 μm, 2.0×20 mm, Imtakt) at 50° C., and 10 mmol/L ammonium formate, 0.2% formic acid as mobile phase A and acetonitrile, 0.2% formic acid as mobile phase B were fed each at a flow rate of 1.2 mL/min under gradient conditions of (B concentration: 0 min→0.1 min, 5%, 0.1→0.75 min, 5-99%, 0.75→1.15 min, 99%, 1.15→1.16 min, 5%, 1.16→1.5 min, 5%). MS/MS used was AB Sciex™ TQ5500-MPX (Applied Biosystems™).
The results are shown in Table 4. • Tmax: time to reach maximum plasma concentration • MRT: mean residence time • iv: intravenous administration • CL total: total clearance

Male beagle dogs = experiment: Experiment on gastrointestinal motility in dogs; format: in vivo, dog; settings: 4 or 8 hr after administration, compared with solvent administration group
Method: Experiment on Gastrointestinal Motility in Dogs
Male beagle dogs each equipped with four pressure transducers (one in the ileum and three in the large intestine) were used after an acclimation period for 15 days. The compound of Example 13 (0.03 mg/kg) or the compound of Example 60 (1 mg/kg) was suspended in 0.5% methylcellulose solution and orally administered at a volume of 10 mL/kg. Only 0.5% methylcellulose was administered to a solvent administration group.
HAPC (abbreviation for high amplitude propagated contractions which mean strong contractions propagated from the oral side to the anal side of the large intestine during defecation. Intestinal contraction pattern observed during normal defecation.) at 4 or 8 hr after administration was counted using a telemeter for gastrointestinal motility (GTS-850, STARMEDICAL).

Compound | number of feces 2 hr later (Male SD rats; 1 mg/kg) | clearance (Rat PK test) [mL/min/kg] | MRT (Rat PK test) [min] | Tmax (Rat PK test) [min] | number of feces 2 hr later (Male SD rats; 3 mg/kg) | number of HAPCs in the intestinal tract (Male beagle dogs; oral 1 mg/kg) | number of HAPCs in the intestinal tract (Male beagle dogs; oral 0.03 mg/kg)
CNC(=O)c1ccc(Cc2cc(C(=O)N[C@H]3CCOC[C@@H]3O)c(OC)c3c2OCC3)cc1F [Example 31, 1,5-anhydro-2,3-dideoxy-3-(((7-(3-fluoro-4-(methylcarbamoyl)benzyl)-4-methoxy-2,3-dihydro-1-benzofuran-5-yl)carbonyl)amino)-L-threo-pentitol] | 5.9 ± 0.9 | 9.05 | 54 | 42 | – | – | –
Cn1cnc(-c2ccc(Cc3cc(C(=O)N[C@H]4CCOC[C@@H]4O)c(F)c4c3OCC4)cc2)c1 [Example 5, 1,5-anhydro-2,3-dideoxy-3-(((4-fluoro-7-(4-(1-methyl-1H-imidazol-4-yl)benzyl)-2,3-dihydro-1-benzofuran-5-yl)carbonyl)amino)-L-threo-pentitol] | 6.3 ± 0.7 | 11.1 | 36 | 30 | 8.7 ± 1.2 | – | –
Cn1cc(-c2ccc(Cc3cc(C(=O)N[C@H]4CCOC[C@@H]4O)c(F)c4c3OCC4)cn2)cn1 [Example 6, 1,5-anhydro-2,3-dideoxy-3-(((4-fluoro-7-((6-(1-methyl-1H-pyrazol-4-yl)pyridin-3-yl)methyl)-2,3-dihydro-1-benzofuran-5-yl)carbonyl)amino)-L-threo-pentitol] | 6.6 ± 0.9 | 6.5 | 84 | 72 | – | – | –
COCCCNC(=O)c1ccc(Cc2cc(C(=O)N[C@H]3CCOC[C@@H]3O)c(OC)c3c2CCC3)cc1F [Example 60, 1,5-anhydro-2,3-dideoxy-3-(((7-(3-fluoro-4-((3-methoxypropyl)carbamoyl)benzyl)-4-methoxy-2,3-dihydro-1H-inden-5-yl)carbonyl)amino)-L-threo-pentitol] | 6.9 ± 1.2 | 18.6 | 36 | 48 | 11.4 ± 1.2 | an increase in the number of HAPCs in the intestinal tract was observed | –
CCOCCNC(=O)c1ccc(Cc2cc(C(=O)N[C@H]3CCOC[C@@H]3O)c(F)c3c2OCC3)cc1F [Example 14, 1,5-anhydro-2,3-dideoxy-3-(((7-(4-((2-ethoxyethyl)carbamoyl)-3-fluorobenzyl)-4-fluoro-2,3-dihydro-1-benzofuran-5-yl)carbonyl)amino)-L-threo-pentitol] | 6.8 ± 1.3 | 22.9 | 36 | 42 | 10.4 ± 1.1 | – | –
COCCNC(=O)c1ccc(Cc2cc(C(=O)N[C@H]3CCOC[C@@H]3O)c(F)c3c2OCC3)cc1F [Example 13, 1,5-anhydro-2,3-dideoxy-3-(((4-fluoro-7-(3-fluoro-4-((2-methoxyethyl)carbamoyl)benzyl)-2,3-dihydro-1-benzofuran-5-yl)carbonyl)amino)-L-threo-pentitol] | 9.9 ± 1.6 | 13.7 | 72 | 60 | – | – | an increase in the number of HAPCs in the intestinal tract was observed
